Experimental data taken from patent publication US20240116985A1, “STAPLED PEPTIDES AND METHODS THEREOF” (priority 2020, published 2024).
Converted amounts (≈) assume the structure as drawn. Like-named read-outs stand apart in the source and are kept apart here.

Assays:
Axin2 and Myc = test: Gene expression in cells (FIG. 1); type: cell-based
Text: FIG. 1. Provided agents can modulate gene expression in cells.

PLOD2 and LCOR = test: Expression of beta-catenin-independent genes (FIG. 2); type: cell-based
DLD1 = test: Reporter assay (e.g., DLD1 reporter assay) (FIG. 3); type: cell-based; settings: compared to a control peptide I-796
Text: FIG. 3. Provided technologies can effectively modulate expression.
Various technologies can be utilized for characterizing and/or assessing provided technologies (e.g., agents (e.g., various peptides), compositions, methods, etc.) in accordance with the present disclosure. As described herein, in some embodiments, a useful technology is or comprises fluorescence polarization. In some embodiments, a useful technology assesses Log P or Log D. In some embodiments, a useful technology is or comprises a CHI Log D assay. In some embodiments, a useful technology assesses solubility. In some embodiments, a useful technology is or comprises NanoBRET. In some embodiments, a useful technology is or comprises a reporter assay (e.g., DLD1 reporter assay). In some embodiments, a useful technology is or comprises alphascreen. Certain useful protocols are described in the Examples. Those skilled in the art appreciate that suitable adjustments may be made to such protocols, e.g., according to specific conditions, agents, purposes, etc.

[1] = biological target: T1, full-length beta-Catenin (Uniprot ID P35222) (Homo sapiens, UniProt P35222); test: Fluorescence polarization IC50 (beta-catenin / 5FAM-TCF4 10-53 competition); type: binding
T1 construct: 10 nM full-length beta-Catenin (Uniprot ID P35222)
T1 sequence (P35222 1-781): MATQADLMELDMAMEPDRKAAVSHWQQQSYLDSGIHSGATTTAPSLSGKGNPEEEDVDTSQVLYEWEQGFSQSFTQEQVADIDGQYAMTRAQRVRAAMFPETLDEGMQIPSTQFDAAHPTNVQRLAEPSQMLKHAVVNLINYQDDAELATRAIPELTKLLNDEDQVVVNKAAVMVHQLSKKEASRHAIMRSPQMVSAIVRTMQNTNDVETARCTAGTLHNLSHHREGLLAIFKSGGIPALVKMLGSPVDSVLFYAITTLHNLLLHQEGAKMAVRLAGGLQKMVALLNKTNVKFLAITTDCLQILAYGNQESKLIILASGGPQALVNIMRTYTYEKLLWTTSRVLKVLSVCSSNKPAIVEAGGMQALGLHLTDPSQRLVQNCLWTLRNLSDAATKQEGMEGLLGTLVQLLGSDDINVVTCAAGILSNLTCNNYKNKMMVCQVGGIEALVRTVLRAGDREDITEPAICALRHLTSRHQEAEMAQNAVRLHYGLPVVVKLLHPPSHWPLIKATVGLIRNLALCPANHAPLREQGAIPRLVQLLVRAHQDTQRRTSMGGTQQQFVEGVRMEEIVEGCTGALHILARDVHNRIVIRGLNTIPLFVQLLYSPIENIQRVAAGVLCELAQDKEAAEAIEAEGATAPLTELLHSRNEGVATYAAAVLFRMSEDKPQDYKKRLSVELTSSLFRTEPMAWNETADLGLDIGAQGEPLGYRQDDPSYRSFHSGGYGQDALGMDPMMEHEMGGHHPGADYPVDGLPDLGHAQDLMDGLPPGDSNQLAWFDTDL

CHI Log D procedure = type: physicochemical; settings: pH 7.4
[2] = biological target: T2, beta-catenin/TCF4 engagement (Homo sapiens, UniProt P35222); test: Nano-BRET target engagement assay (B-cat-Halo & TCF4-Luc in HEK293 cells); type: cell-based
T2 construct: expressed in transfected cells; host or cells: HEK293
T2 sequence (P35222 1-781): T1 sequence (P35222 1-781)

[3] = test system: TCF/LEF luciferase Reporter in DLD1 cells; test: TCF reporter assay (DLD1 TCF/LEF luciferase reporter, Bright-Glo); type: cell-based
Outline: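 DLD1 cells stably carrying a TCF/LEF luciferase reporter were plated at 5000 cells/well in RPMI + 4% FBS and treated overnight with a 1:2 compound dilution series. Bright-Glo luminescence read on day 3; viability by CellTiter-Glo. Absolute IC50 determined.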

Solubility in PBS = type: physicochemical
Outline: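 Solubility is derived from HPLC peak areas: the ratio of the PBS supernatant peak to a 50 μM DMSO peptide peak, times 50 uM.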

[4] = fluorescence polarization, beta-catenin, read-out: FP EC50
[5] = Peptide + ST-Protein (SAINT-Protein lipid), read-out: Nano-BRET Abs IC50
[6] = Peptide only, read-out: Nano-BRET Abs IC50
[7] = absolute IC50, read-out: NanoBRET Abs IC50
[8] = Peptide + ST-Protein (SAINT-Protein lipid), read-out: TCF Reporter Assay Abs IC50
[9] = Peptide only, read-out: TCF Reporter Assay Abs IC50

Row | IC50 [1, 4] | IC50 ([1]; read-out: beta-Catenin FP IC50) | CHI Log D (CHI Log D procedure) | IC50 [2, 5] | IC50 [2, 6] | IC50 [2, 7] | IC50 ([2]; read-out: NanoBRET Abs IC50) | IC50 ([2]; read-out: NanoBRET IC50) | IC50 [3, 8] | IC50 [3, 9] | IC50 ([3]; read-out: DLD1 4% Abs IC50, DLD1 4%) | Solubility (Solubility in PBS) | Compound | expression of various nucleic acids such as Axin2 and Myc (Axin2 and Myc) | expression of beta-catenin-independent genes including beta-catenin-independent WNT target genes such as PLOD2 and LCOR (PLOD2 and LCOR) | expression in a report assay (DLD1)
1 | 7 nM | 8 nM | 2.393 | 700 nM | 5000 nM | 2600 nM | 3600 nM | 2300 nM | 200 nM | 5000 nM | 1100 nM |  | CC(=O)N1CCC[C@]12CC=CCCCC1(CCCC=CCCCOC(=O)N3CC[C@@](C(=O)N[C@@H](Cc4ccsc4)C(=O)N[C@@H](Cc4csc5ccccc45)C(=O)N[C@@H](CCC(N)=O)C(N)=O)(C3)NC(=O)[C@H](CC(C)C)NC(=O)[C@H](Cc3ccccc3)NC(=O)[C@H](C)NC(=O)[C@H](C)NC(=O)[C@H](CN(CC(=O)O)CC(F)(F)F)NC(=O)[C@H](CC(=O)O)NC1=O)NC(=O)[C@H](CC(C)(C)C)NC(=O)[C@H](CC(=O)O)NC2=O (stereo partly drawn) [I-849, Ac-PL3-Asp-Npg-B5-Asp-TfeGA-Ala-Ala-Phe-Leu-PyrS2-3Thi-BztA-Gln-NH2] | can effectively reduce expression | do not significantly impact expression | can effectively reduce expression
2 | 12 nM | 12 nM | 2.344 | 1000 nM | 6000 nM | 2700 nM | 2700 nM | 2300 nM | 200 nM | 5000 nM |  | 32 µM (≈ 65.4 µg/mL) | CC(=O)N1CCC[C@]12CC=CCCCC1(CCCC=CCCCOC(=O)N3CC[C@@](C(=O)N[C@@H](Cc4ccccc4Cl)C(=O)N[C@@H](Cc4csc5ccccc45)C(=O)N[C@@H](CCC(N)=O)C(N)=O)(C3)NC(=O)[C@H]([C@@H](C)O)NC(=O)[C@H](Cc3ccccc3)NC(=O)[C@H](C)NC(=O)[C@H](C)NC(=O)[C@H](CN(CC(=O)O)CC(F)(F)F)NC(=O)[C@H](CC(=O)O)NC1=O)NC(=O)[C@H](CC(C)(C)C)NC(=O)[C@H](CC(=O)O)NC2=O (stereo partly drawn) [I-922, Ac-PL3-Asp-Npg-B5-Asp-TfeGA-Ala-Ala-Phe-Thr-PyrS2-2C1F-BztA-Gln-NH2] | can effectively reduce expression | do not significantly impact expression | can effectively reduce expression
